Measurements from US20150105252A1, “SUBSTITUTED PYRAZOLES AS HERBICIDES” (E I DU PONT DE NEMOURS AND COMPANY, priority 2013, published 2015).

How the values were obtained:
Assay in all cases: Test C postemergence
corn = assay type: in vivo, Zea mays
In short: (§1)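 Seeds were sown in a loam soil–sand blend and sprayed preemergence with compounds formulated in a non-phytotoxic solvent mixture containing surfactant. Postemergence plants, grown in peat/vermiculite medium to 2–18 cm (1- to 4-leaf stage), received the same formulation. After 13 to 15 days in a greenhouse, injury was rated visually against controls (0 = no effect, 100 = complete control).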

ryegrass, Italian = assay type: in vivo, Lolium multiflorum
In short: as §1

pigweed = assay type: in vivo, Amaranthus retroflexus
In short: as §1

lambsquarters = assay type: in vivo, Chenopodium album
In short: as §1

oat, wild = assay type: in vivo, Avena fatua
In short: as §1

ragweed = assay type: in vivo, Ambrosia elation
In short: as §1

soybean = assay type: in vivo, Glycine max
In short: as §1

barnyardgrass = assay type: in vivo, Echinochloa crus-galli
In short: as §1

oilseed rape = assay type: in vivo, Brassica napus
In short: as §1

galium = assay type: in vivo, Galium aparine
In short: as §1

waterhemp = assay type: in vivo, Amaranthus rudis
In short: as §1

kochia = assay type: in vivo, Kochia scoparia
In short: as §1

wheat = assay type: in vivo, Triticum aestivum
In short: as §1

nutsedge, yellow = assay type: in vivo, Cyperus esculentus
In short: as §1

foxtail, giant = assay type: in vivo, Setaria faberii
In short: as §1

[1] = Postemergence, 31 g ai/ha, visually evaluated after 13 to 15 days
[2] = postemergence, 62 g ai/ha, scale 0 to 100
[3] = postemergence, 250 g ai/ha, scale 0 to 100 (0 no effect, 100 complete control)
[4] = postemergence, 125 g ai/ha, scale 0 to 100, 0 no effect, 100 complete control

CCOc1cc(C(=O)NCC(F)(F)F)nn1Cc1ccnc(C(F)(F)F)c1 [Compound 104]
Plant response rating (scale of 0 to 100 where 0 is no effect and 100 is complete control), Corn (corn; [1]): 5 | Corn plant response rating (corn; [2]): 35 | Plant response rating, Corn (corn; [3]): 95 | Plant response rating, Corn (corn; [4]): 35 | Plant response rating (scale of 0 to 100 where 0 is no effect and 100 is complete control), Ryegrass, Italian (ryegrass, Italian; [1]): 5 | Ryegrass, Italian plant response rating (ryegrass, Italian; [2]): 5 | Plant response rating, Ryegrass, Italian (ryegrass, Italian; [3]): 80 | Plant response rating, Ryegrass, Italian (ryegrass, Italian; [4]): 35 | Plant response rating (scale of 0 to 100 where 0 is no effect and 100 is complete control), Pigweed (pigweed; [1]): 50 | Pigweed plant response rating (pigweed; [2]): 85 | Plant response rating, Pigweed (pigweed; [3]): 98 | Plant response rating, Pigweed (pigweed; [4]): 95 | Plant response rating (scale of 0 to 100 where 0 is no effect and 100 is complete control), Lambsquarters (lambsquarters; [1]): 80 | Lambsquarters plant response rating (lambsquarters; [2]): 95 | Plant response rating, Lambsquarters (lambsquarters; [3]): 95 | Plant response rating, Lambsquarters (lambsquarters; [4]): 95 | Plant response rating (scale of 0 to 100 where 0 is no effect and 100 is complete control), Oat, Wild (oat, wild; [1]): 5 | Oat, Wild plant response rating (oat, wild; [2]): 15 | Plant response rating, Oat, Wild (oat, wild; [3]): 85 | Plant response rating, Oat, Wild (oat, wild; [4]): 35 | Plant response rating (scale of 0 to 100 where 0 is no effect and 100 is complete control), Ragweed (ragweed; [1]): 85 | Ragweed plant response rating (ragweed; [2]): 85 | Plant response rating, Ragweed (ragweed; [3]): 95 | Plant response rating, Ragweed (ragweed; [4]): 95 | Plant response rating (scale of 0 to 100 where 0 is no effect and 100 is complete control), Soybean (soybean; [1]): 90 | Soybean plant response rating (soybean; [2]): 95 | Plant response rating, Soybean (soybean; [3]): 95 | Plant response rating, Soybean (soybean; [4]): 95 | Plant response rating (scale of 0 to 100 where 0 is no effect and 100 is complete control), Barnyardgrass (barnyardgrass; [1]): 5 | Barnyardgrass plant response rating (barnyardgrass; [2]): 5 | Plant response rating, Barnyardgrass (barnyardgrass; [3]): 90 | Plant response rating, Barnyardgrass (barnyardgrass; [4]): 45 | Plant response rating (scale of 0 to 100 where 0 is no effect and 100 is complete control), Oilseed Rape (oilseed rape; [1]): 40 | Oilseed Rape plant response rating (oilseed rape; [2]): 50 | Plant response rating, Oilseed Rape (oilseed rape; [3]): 85 | Plant response rating, Oilseed Rape (oilseed rape; [4]): 60 | Plant response rating (scale of 0 to 100 where 0 is no effect and 100 is complete control), Galium (galium; [1]): 60 | Galium plant response rating (galium; [2]): 60 | Plant response rating, Galium (galium; [3]): 85 | Plant response rating, Galium (galium; [4]): 85 | Plant response rating (scale of 0 to 100 where 0 is no effect and 100 is complete control), Waterhemp (waterhemp; [1]): 35 | Waterhemp plant response rating (waterhemp; [2]): 85 | Plant response rating, Waterhemp (waterhemp; [3]): 98 | Plant response rating (scale of 0 to 100 where 0 is no effect and 100 is complete control), Kochia (kochia; [1]): 85 | Kochia plant response rating (kochia; [2]): 90 | Plant response rating, Kochia (kochia; [3]): 90 | Plant response rating, Kochia (kochia; [4]): 90 | Plant response rating (scale of 0 to 100 where 0 is no effect and 100 is complete control), Wheat (wheat; [1]): 5 | Wheat plant response rating (wheat; [2]): 10 | Plant response rating, Wheat (wheat; [3]): 25 | Plant response rating, Wheat (wheat; [4]): 10 | Plant response rating (scale of 0 to 100 where 0 is no effect and 100 is complete control), Nutsedge, Yellow (nutsedge, yellow; [1]): 5 | Nutsedge, Yellow plant response rating (nutsedge, yellow; [2]): 5 | Plant response rating, Nutsedge, Yellow (nutsedge, yellow; [3]): 60 | Plant response rating, Nutsedge, Yellow (nutsedge, yellow; [4]): 10 | Plant response rating (scale of 0 to 100 where 0 is no effect and 100 is complete control), Foxtail, Giant (foxtail, giant; [1]): 5 | Foxtail, Giant plant response rating (foxtail, giant; [2]): 85 | Plant response rating, Foxtail, Giant (foxtail, giant; [3]): 98 | Plant response rating, Foxtail, Giant (foxtail, giant; [4]): 90
